Among the data in US9132130B2, “Purine derivative and antitumor agent using same” (ZENYAKU KOGYO KABUSHIKI KAISHA, priority 2009, dated 2015) are GI50, T/C and melting point values, retold here.

Data set [1] deals with PC-3 cells (human prostate cancer cells). The data set is described as follows: in vitro antitumor activity test, PC-3 cells, XTT colorimetry. Format: cell-based. The conditions noted are these: PC-3 human prostate cancer cells, cultured 72 hours. An outline of the steps:
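PC-3 human prostate cancer cells, seeded at 2×10^4 cells/ml and allowed to adhere for 24 h, were exposed 72 h at 37° C, 5% CO2 to compound diluted in RPMI 1640 with 10% FBS to 2.0×10^−9 to 2.0×10^−4 M (pre-addition solutions). Growth was measured by XTT colorimetry and GI50 (μM) calculated.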

The next data set relates to human lung cancer A549. The data set is described as follows: in vivo antitumor activity, nude mice transplanted with human lung cancer A549. The conditions noted are these: tumor volume at day 14. On the set-up: species or system BALB/c-nu/nu mice. The procedure: (§1) Tumor tissue fragments of human lung cancer A549 (3 mm×3 mm×3 mm) were transplanted subcutaneously into the chests of six-week-old female BALB/c-nu/nu mice, and sample administration started when the tumor volume reached at least approximately 100 mm^3 (day 0). Compound 2 and Compound 7 were suspended in a 1% hydroxypropylcellulose (HPC [L]) solution using an agate mortar. 400 mg/kg of Compound 2 was orally administered daily from day 0 to day 13 (excluding day 3 and day 10, a total of 12 times). 400 mg/kg of Compound 7 was intraperitoneally administered daily from day 0 to day 13 (excluding day 4 and day 11, a total of 12 times). Tumor diameters were measured to calculate tumor volume (½×long diameter×short diameter×short diameter), and the tumor volume after 14 days (at day 14) from the start of sample administration was divided by the tumor volume at the start of the administration to calculate relative tumor growth rate. The percentage of the relative tumor growth rate of the control group with respect to the relative tumor growth rate of the group administered with Compound 2 or Compound 7 was taken as T/C (%).

Data set [2] has as its system MCF-7 cells (human breast cancer cells). The data set is described as follows: antitumor activity against breast cancer cells, cell counting. Format: cell-based. The conditions noted are these: MCF7; MCF-7 human breast cancer cells, cultured 72 hours, cell counter. The procedure:
MCF-7 cells (human breast cancer cells) subcultured in a culture medium composed of a MEM medium added with 10% fetal bovine serum, 25 mM HEPES and 0.1 mg/ml kanamycin under the conditions of 37° C. and 5% carbon dioxide gas were made into single floating cells by treating with trypsin/EDTA, and a single cell suspension of 4×10^4 cells per 1 ml was prepared using the MEM medium (added with 10% fetal bovine serum, 25 mM HEPES and 0.1 mg/ml kanamycin). After dissolving the test substances (Compound 2 and Compound 7) in DMSO, they were diluted with the MEM medium (added with 10% fetal bovine serum, 25 mM HEPES and 0.1 mg/ml kanamycin) and prepared so that the concentrations were 6.4×10^−8 to 2.0×10^−5 M.
0.1 ml of the cell suspension was placed into each well of a 96-well microplate, cultured for 24 hours to allow the cells to adhere to the microplate, then 0.1 ml of the sample solutions were added, and cultured for 72 hours at 37° C. in 5% carbon dioxide gas.
Afterwards, the cells in each well were made single floating cells by treating with trypsin/EDTA, and the number of cells was counted using a cell counter to obtain the growth inhibition rate at various sample concentrations and calculate the concentrations at which growth was inhibited by 50% (GI50 values [μM]).

The test system of data set [3] is B16F10 cells (mouse melanoma [malignant melanoma] cells). The data set is described as follows: in vitro antitumor activity test, B16F10 cells, XTT colorimetry. It is filed as cell-based. As to conditions: B16-F10, cultured 72 hours. The method, boiled down:
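B16F10 mouse melanoma cells were seeded from a 1×10^4 cells/ml suspension and allowed to adhere for 24 h. Compounds in DMSO were diluted in RPMI 1640 with 10% FBS to 2.0×10^−9 to 2.0×10^−4 M and incubated 72 h at 37° C, 5% CO2. XTT colorimetry gave GI50 (μM).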

The test system of data set [4] is P388 cells (mouse leukemia cells). The data set is described as follows: in vitro antitumor activity test, P388 cells, XTT colorimetry. The conditions noted are these: cultured 72 hours. Format: cell-based. An outline of the steps:
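Cells from DBA/2 mouse ascites, in RPMI 1640 with 10% FBS and 25 mM HEPES, seeded from a 4×10^4 cells/ml suspension. Equal volume added of compound solutions prepared at 2.0×10^−9 to 2.0×10^−4 M (pre-mixing). After 72 h at 37° C, 5% CO2, growth read by XTT; GI50 (μM) is the concentration giving 50% growth inhibition.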

Another data set relates to human colon cancer WiDr. The data set is described as follows: in vivo antitumor activity, nude mice transplanted with human colon cancer WiDr. On the set-up: species or system BALB/c-nu/nu mice. The conditions noted are these: 400 mg/kg orally daily day 0 to day 13 (12 times), tumor volume at day 14. The method, then:
as §1, with “colon” for “lung”, “WiDr” for “A549”, “was” for “and Compound 7 were”, “HPC (L)” for “hydroxypropylcellulose (HPC [L])”, “10,” for “10, a total of 12 times). 400 mg/kg of Compound 7 was intraperitoneally administered daily from day 0 to day 13 (excluding day 4 and day 11,”, “2” for “2 or Compound 7”

The subject of data set [5] is A549 cells (human lung cancer cells). The data set is described as follows: in vitro antitumor activity test, A549 cells, XTT colorimetry. It is filed as cell-based. As to conditions: cultured 72 hours. The method, boiled down:
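Cells seeded at 2×10^4 cells/ml in MEM + 10% FBS, 25 mM HEPES, kanamycin, allowed to adhere 24 h, then exposed to compounds (DMSO stocks diluted in RPMI 1640; prepared at 2.0×10^−9 to 2.0×10^−4 M) for 72 h at 37 °C, 5% CO2. Growth inhibition read by XTT colorimetry; GI50 (μM) calculated.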

Data set [6] deals with human prostate cancer PC-3. The data set is described as follows: in vivo antitumor activity, nude mice transplanted with human prostate cancer PC-3. The conditions noted are these: PC-3 in nude mice, 400 mg/kg orally daily day 0 to day 13 (12 times), tumor volume at day 14. On the set-up: species or system BALB/c-nu/nu mice. The method, then: as §1, with “prostate” for “lung”, “PC-3” for “A549”, “was” for “and Compound 7 were”, “HPC (L)” for “hydroxypropylcellulose (HPC [L])”, “10,” for “10, a total of 12 times). 400 mg/kg of Compound 7 was intraperitoneally administered daily from day 0 to day 13 (excluding day 4 and day 11,”, “2” for “2 or Compound 7”

Data set [7] concerns WiDr cells (human colon cancer cells). The data set is described as follows: in vitro antitumor activity test, WiDr cells, XTT colorimetry. It is filed as cell-based. The conditions noted are these: cultured 72 hours. An outline of the steps:
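Human colon cancer cells in MEM/10% FBS were seeded 3×10^4 cells/ml and allowed to adhere for 24 h, then exposed to compounds prepared at 2.0×10^−9 to 2.0×10^−4 M in RPMI 1640 for 72 h at 37° C, 5% CO2. Growth was read by XTT colorimetry and GI50 (μM) calculated.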

Compound `CCc1nc2c(N3CCOCC3)nc(SCc3ccc(OC)c(N)c3)nc2n1C` [Compound 2, 2-(3-amino-4-methoxybenzylsulfanyl)-8-ethyl-9-methyl-6-morpholino-9H-purine] returned a melting point of 139 °C. In [1], the GI50 is 100 nM. In the data set with human lung cancer A549 (400 mg/kg orally daily day 0 to day 13 (12 times)), the T/C was determined as 73.1%. The same compound registered a GI50 in [2] of 110 nM. The compound further yielded a GI50 in data set [3] of 300 nM. The GI50 in data set [4] was determined as 110 nM. For the same compound, the T/C in the data set on human colon cancer WiDr came to 62.1%. Besides, in data set [5], the GI50 was determined as 140 nM. In data set [6], this compound yielded a T/C of 32.2%. This compound also showed a GI50 in [7] of 300 nM.
Consider `CCc1nc2c(N3CCN(N=O)CC3)nc(SCc3ccc(OC)cc3)nc2n1C` [Compound 7, 8-ethyl-2-(4-methoxybenzylsulfanyl)-9-methyl-6-(4-nitrosopiperazin-1-yl)-9H-purine], for which the concentration for 50% growth inhibition (GI50) in [1] came out at 140 nM; in data set [2] it was 130 nM; in [3] it was 340 nM; in data set [4], 120 nM; in data set [5], 130 nM; in [7] it was 250 nM. Moreover, the T/C in the data set on human lung cancer A549 (400 mg/kg intraperitoneally daily day 0 to day 13 (12 times)) was 55.4%.
